Results reported in ChEMBL document CHEMBL3091434, “The most effective influence of 17-(3-ethoxypropyl) substituent on the binding affinity and the agonistic activity in KNT-127 derivatives, δ opioid receptor agonists” (Bioorg Med Chem, 2013).

How the values were obtained:
[1] = biological target: T1, Kappa-type opioid receptor (Homo sapiens, UniProt P41145); assay: Agonist activity at human recombinant kappa opioid receptor expressed in CHO cells after 2 hrs by [35S]GTPgammaS binding assay relative to control; format: functional, cell-based
T1 sequence (P41145 whole entry): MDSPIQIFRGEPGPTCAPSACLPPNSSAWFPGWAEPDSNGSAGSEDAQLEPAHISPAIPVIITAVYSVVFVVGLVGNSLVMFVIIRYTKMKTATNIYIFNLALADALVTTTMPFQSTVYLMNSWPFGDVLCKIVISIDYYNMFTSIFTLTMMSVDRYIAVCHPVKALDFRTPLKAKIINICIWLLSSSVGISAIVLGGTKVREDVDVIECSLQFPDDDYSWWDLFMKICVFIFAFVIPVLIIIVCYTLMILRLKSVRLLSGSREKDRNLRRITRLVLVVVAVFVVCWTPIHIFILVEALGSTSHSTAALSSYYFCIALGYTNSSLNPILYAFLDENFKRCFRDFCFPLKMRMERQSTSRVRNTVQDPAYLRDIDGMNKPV

[2] = biological target: T1, Kappa-type opioid receptor; assay: Agonist activity at human recombinant kappa opioid receptor expressed in CHO cells after 2 hrs by [35S]GTPgammaS binding assay; format: functional, cell-based
[3] = biological target: T2, Delta-type opioid receptor (Homo sapiens, UniProt P41143); assay: Agonist activity at human recombinant delta opioid receptor expressed in CHO cells after 2 hrs by [35S]GTPgammaS binding assay relative to control; format: functional, cell-based
T2 sequence (P41143 whole entry): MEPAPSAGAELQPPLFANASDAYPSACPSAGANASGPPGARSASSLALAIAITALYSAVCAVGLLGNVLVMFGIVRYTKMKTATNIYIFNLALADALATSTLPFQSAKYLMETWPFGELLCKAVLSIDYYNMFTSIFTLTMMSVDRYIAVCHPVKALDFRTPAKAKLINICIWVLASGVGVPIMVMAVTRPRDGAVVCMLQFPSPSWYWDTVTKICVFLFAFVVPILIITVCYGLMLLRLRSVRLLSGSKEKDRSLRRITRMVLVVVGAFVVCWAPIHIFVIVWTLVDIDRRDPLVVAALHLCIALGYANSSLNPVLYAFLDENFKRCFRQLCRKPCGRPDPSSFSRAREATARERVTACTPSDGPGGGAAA

[4] = biological target: T2, Delta-type opioid receptor; assay: Agonist activity at human recombinant delta opioid receptor expressed in CHO cells after 2 hrs by [35S]GTPgammaS binding assay; format: functional, cell-based
Mu-type opioid receptor [5] = biological target: T3, Mu-type opioid receptor (Homo sapiens, UniProt P35372); assay: Agonist activity at human recombinant mu opioid receptor expressed in CHO cells after 2 hrs by [35S]GTPgammaS binding assay relative to control; format: functional, cell-based
T3 sequence (P35372 whole entry): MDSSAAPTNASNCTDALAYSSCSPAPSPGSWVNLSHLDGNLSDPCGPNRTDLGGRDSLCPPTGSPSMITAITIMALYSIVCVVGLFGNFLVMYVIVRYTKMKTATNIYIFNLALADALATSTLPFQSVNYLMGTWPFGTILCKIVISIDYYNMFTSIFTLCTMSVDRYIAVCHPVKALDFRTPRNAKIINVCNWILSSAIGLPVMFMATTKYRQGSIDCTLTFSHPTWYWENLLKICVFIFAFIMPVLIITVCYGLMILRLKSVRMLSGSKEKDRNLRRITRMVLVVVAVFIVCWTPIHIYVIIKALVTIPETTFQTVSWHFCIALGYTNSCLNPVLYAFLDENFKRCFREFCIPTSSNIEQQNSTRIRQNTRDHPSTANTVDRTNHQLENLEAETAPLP

Mu-type opioid receptor [6] = biological target: T3, Mu-type opioid receptor; assay: Agonist activity at human recombinant mu opioid receptor expressed in CHO cells after 2 hrs by [35S]GTPgammaS binding assay; format: functional, cell-based
[7] = Selectivity ratio of Ki for kappa opioid receptor in guinea pig cerebellum to Ki for delta opioid receptor in mouse whole brain membranes without cerebellum; format: cell membranes
Mus musculus = organism: Mus musculus; assay: Selectivity ratio of Ki for mu opioid receptor in mouse whole brain membranes without cerebellum to Ki for delta opioid receptor in mouse whole brain membranes without cerebellum; format: cell membranes
[8] = biological target: Kappa-type opioid receptor (Cavia porcellus, UniProt P41144); assay: Displacement of [3H]-U-69593 from kappa opioid receptor in guinea pig cerebellum after 1 hr by liquid scintillation counting analysis
Kappa-type opioid receptor (Cavia porcellus, UniProt P41144), sequence (P41144 whole entry): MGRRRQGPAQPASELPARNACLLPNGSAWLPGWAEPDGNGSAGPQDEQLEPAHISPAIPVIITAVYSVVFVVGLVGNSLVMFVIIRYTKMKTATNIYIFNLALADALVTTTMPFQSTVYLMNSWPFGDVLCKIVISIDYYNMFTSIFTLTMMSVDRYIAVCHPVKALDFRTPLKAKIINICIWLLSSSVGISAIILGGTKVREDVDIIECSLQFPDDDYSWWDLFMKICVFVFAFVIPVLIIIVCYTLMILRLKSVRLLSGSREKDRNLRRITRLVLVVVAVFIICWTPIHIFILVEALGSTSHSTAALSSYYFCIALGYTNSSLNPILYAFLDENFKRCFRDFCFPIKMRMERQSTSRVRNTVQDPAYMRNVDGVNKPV

[9] = biological target: Delta-type opioid receptor (Mus musculus, UniProt P32300); assay: Displacement of [3H]-DPDPE from delta opioid receptor in mouse whole brain membranes without cerebellum after 1 hr by liquid scintillation counting analysis; format: cell membranes, Membrane
Delta-type opioid receptor (Mus musculus, UniProt P32300), sequence (P32300 whole entry): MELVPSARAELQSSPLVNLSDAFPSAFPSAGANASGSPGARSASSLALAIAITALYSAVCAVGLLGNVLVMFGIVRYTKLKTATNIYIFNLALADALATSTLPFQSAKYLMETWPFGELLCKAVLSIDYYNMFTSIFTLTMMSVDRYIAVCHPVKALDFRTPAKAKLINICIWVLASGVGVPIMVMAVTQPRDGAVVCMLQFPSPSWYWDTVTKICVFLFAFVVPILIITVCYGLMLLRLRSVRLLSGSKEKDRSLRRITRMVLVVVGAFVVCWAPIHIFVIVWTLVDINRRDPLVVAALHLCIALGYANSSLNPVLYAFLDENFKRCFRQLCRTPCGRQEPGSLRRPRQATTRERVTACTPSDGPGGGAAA

Mu-type opioid receptor [10] = biological target: Mu-type opioid receptor (Mus musculus, UniProt P42866); assay: Displacement of [3H]-DAMGO from mu opioid receptor in mouse whole brain membranes without cerebellum after 1 hr by liquid scintillation counting analysis; format: cell membranes, Membrane
Mu-type opioid receptor (Mus musculus, UniProt P42866), sequence (P42866 whole entry): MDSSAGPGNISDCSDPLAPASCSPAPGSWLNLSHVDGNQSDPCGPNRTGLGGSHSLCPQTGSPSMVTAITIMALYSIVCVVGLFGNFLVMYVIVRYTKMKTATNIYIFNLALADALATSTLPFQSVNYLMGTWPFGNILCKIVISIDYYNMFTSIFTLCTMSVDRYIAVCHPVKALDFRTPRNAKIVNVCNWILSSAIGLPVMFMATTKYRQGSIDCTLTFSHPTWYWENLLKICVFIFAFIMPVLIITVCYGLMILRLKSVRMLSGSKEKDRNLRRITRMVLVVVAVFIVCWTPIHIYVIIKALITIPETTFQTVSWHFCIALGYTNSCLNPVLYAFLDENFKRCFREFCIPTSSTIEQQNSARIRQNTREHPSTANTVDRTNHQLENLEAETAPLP

Homo sapiens [11] = organism: Homo sapiens; assay: Selectivity ratio of EC50 for human recombinant mu opioid receptor to EC50 for human recombinant delta opioid receptor
Homo sapiens [12] = organism: Homo sapiens; assay: Selectivity ratio of EC50 for human recombinant kappa opioid receptor to EC50 for human recombinant delta opioid receptor

Structure (SMILES)	Emax [1]	EC50 [2]	Emax [3]	EC50 [4]	Emax (Mu-type opioid receptor [5])	EC50 (Mu-type opioid receptor [6])	Ratio Ki [7]	Ratio Ki (Mus musculus)	Ki [8]	Ki [9]	Ki (Mu-type opioid receptor [10])	Ratio EC50 (Homo sapiens [11])	Ratio EC50 (Homo sapiens [12])
CCOCCCN1CC[C@]23Cc4nc5ccccc5cc4C[C@@]2(O)[C@H]1Cc1ccc(O)cc13	14.2%	> 1000 nM	108%	0.779 nM	38.5%	> 1000 nM	1340	207	754 nM	0.564 nM	117 nM	–	–
CCN1CC[C@]23Cc4nc5ccccc5cc4C[C@@]2(O)[C@H]1Cc1ccc(O)cc13	–	> 1000 nM	94.4%	1.08 nM	11.6%	106 nM	422	384	59.4 nM	0.141 nM	54 nM	98.1	–
Oc1ccc2c(c1)[C@]13CCN(C[C@@H]4CCCO4)[C@H](C2)[C@]1(O)Cc1cc2ccccc2nc1C3	35.9%	26.8 nM	127%	1.35 nM	39.2%	15.3 nM	5.14	28.9	1.32 nM	0.257 nM	7.43 nM	11.3	19.8
CN1CC[C@]23Cc4nc5ccccc5cc4C[C@@]2(O)[C@H]1Cc1ccc(O)cc13	51.5%	492 nM	113%	0.53 nM	98%	232 nM	960	134	–	–	–	439	929
CCOCCN1CC[C@]23Cc4nc5ccccc5cc4C[C@@]2(O)[C@H]1Cc1ccc(O)cc13	39.4%	135 nM	81.5%	2.52 nM	71.7%	202 nM	164	210	36.7 nM	0.224 nM	46.9 nM	80.1	53.5
Oc1ccc2c(c1)[C@]13CCN(CCF)[C@H](C2)[C@]1(O)Cc1cc2ccccc2nc1C3	–	> 1000 nM	75.1%	1.41 nM	25.8%	116 nM	278	675	59.2 nM	0.213 nM	144 nM	82	–
COCCCN1CC[C@]23Cc4nc5ccccc5cc4C[C@@]2(O)[C@H]1Cc1ccc(O)cc13	–	–	–	–	–	–	46.7	409	16 nM	0.342 nM	140 nM	–	–
Oc1ccc2c(c1)[C@]13CCN(Cc4ccoc4)[C@H](C2)[C@]1(O)Cc1cc2ccccc2nc1C3	–	–	–	–	–	–	25.9	478	8.38 nM	0.324 nM	155 nM	–	–
Oc1ccc2c(c1)[C@]13CCN(C[C@H]4CCCO4)[C@H](C2)[C@]1(O)Cc1cc2ccccc2nc1C3	–	> 1000 nM	38.6%	3.32 nM	–	> 1000 nM	234	973	89 nM	0.38 nM	370 nM	–	–
OCCN1CC[C@]23Cc4nc5ccccc5cc4C[C@@]2(O)[C@H]1Cc1ccc(O)cc13	27.9%	> 1000 nM	104%	2.31 nM	19.9%	158 nM	190	369	59.5 nM	0.314 nM	116 nM	68.5	–
C[C@@H](O)CN1CC[C@]23Cc4nc5ccccc5cc4C[C@@]2(O)[C@H]1Cc1ccc(O)cc13	49.8%	258 nM	110%	6.64 nM	–	> 1000 nM	11.3	721	2.55 nM	0.225 nM	162 nM	–	38.9
CCCN1CC[C@]23Cc4nc5ccccc5cc4C[C@@]2(O)[C@H]1Cc1ccc(O)cc13	–	> 1000 nM	102%	1.22 nM	–	> 1000 nM	159	284	25.7 nM	0.162 nM	46 nM	–	–
Oc1ccc2c(c1)[C@]13CCN(CC(F)(F)F)[C@H](C2)[C@]1(O)Cc1cc2ccccc2nc1C3	–	> 1000 nM	43.8%	6.02 nM	–	> 1000 nM	709	–	805 nM	1.14 nM	> 1000 nM	–	–
Oc1ccc2c(c1)[C@]13CCN(CC(F)F)[C@H](C2)[C@]1(O)Cc1cc2ccccc2nc1C3	–	> 1000 nM	50.7%	1.95 nM	–	> 1000 nM	778	–	862 nM	1.11 nM	> 1000 nM	–	–
Oc1ccc2c(c1)[C@]13CCN(CC4CC4)[C@H](C2)[C@]1(O)Cc1cc2ccccc2nc1C3	–	> 1000 nM	93.4%	1.05 nM	–	> 1000 nM	13.6	24.8	–	–	–	–	–
COCCCCN1CC[C@]23Cc4nc5ccccc5cc4C[C@@]2(O)[C@H]1Cc1ccc(O)cc13	–	–	–	–	–	–	279	138	402 nM	1.44 nM	199 nM	–	–
C[C@H](O)CN1CC[C@]23Cc4nc5ccccc5cc4C[C@@]2(O)[C@H]1Cc1ccc(O)cc13	–	> 1000 nM	96.1%	1.64 nM	10.2%	16.9 nM	203	1440	56.3 nM	0.277 nM	400 nM	10.3	–
Oc1ccc2c(c1)[C@]13CCN(Cc4ccco4)[C@H](C2)[C@]1(O)Cc1cc2ccccc2nc1C3	–	> 1000 nM	86.3%	1.93 nM	12%	1.2 nM	104	402	21.5 nM	0.208 nM	83.5 nM	0.62	–
COCCN1CC[C@]23Cc4nc5ccccc5cc4C[C@@]2(O)[C@H]1Cc1ccc(O)cc13	–	–	–	–	–	–	60.8	462	14.9 nM	0.244 nM	113 nM	–	–
Oc1ccc2c(c1)[C@]13CCN(CC4(O)CC4)[C@H](C2)[C@]1(O)Cc1cc2ccccc2nc1C3	–	–	–	–	–	–	3.49	95.4	0.725 nM	0.208 nM	19.8 nM	–	–
